PMC3843973 (Journal of medicinal chemistry, 2013)
Read-outs that look alike come from different tables or passages of the source.

Key:
BALB/cJ male mice = details: mouse
rat α2β2 nAChR = rat α2β2 nAChR (Rattus norvegicus, UniProt P12389+P12390); details: read-out: Ki α2β2; cited from earlier work
rat α2β4 nAChR = rat α2β4 nAChR (Rattus norvegicus, UniProt P12389+P12392); details: read-out: Ki α2β4; cited from earlier work
rat α3β2 nAChR = rat α3β2 nAChR (Rattus norvegicus, UniProt P04757+P12390); details: read-out: Ki α3β2; cited from earlier work
Chain of rat α3β2 nAChR (P12390 25-500): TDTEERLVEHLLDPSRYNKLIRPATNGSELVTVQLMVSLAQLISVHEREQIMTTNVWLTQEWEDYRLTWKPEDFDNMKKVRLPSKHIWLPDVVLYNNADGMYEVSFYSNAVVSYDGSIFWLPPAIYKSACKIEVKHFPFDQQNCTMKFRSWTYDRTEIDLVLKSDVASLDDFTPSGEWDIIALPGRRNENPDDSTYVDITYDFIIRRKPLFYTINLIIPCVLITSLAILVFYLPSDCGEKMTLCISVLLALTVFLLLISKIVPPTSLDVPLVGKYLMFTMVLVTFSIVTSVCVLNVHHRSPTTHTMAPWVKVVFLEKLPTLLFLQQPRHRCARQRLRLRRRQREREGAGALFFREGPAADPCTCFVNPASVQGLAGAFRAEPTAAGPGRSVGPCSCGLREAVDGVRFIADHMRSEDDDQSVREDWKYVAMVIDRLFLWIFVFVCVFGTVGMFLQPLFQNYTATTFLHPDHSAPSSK
Chain of rat α3β2 nAChR (P04757 26-499): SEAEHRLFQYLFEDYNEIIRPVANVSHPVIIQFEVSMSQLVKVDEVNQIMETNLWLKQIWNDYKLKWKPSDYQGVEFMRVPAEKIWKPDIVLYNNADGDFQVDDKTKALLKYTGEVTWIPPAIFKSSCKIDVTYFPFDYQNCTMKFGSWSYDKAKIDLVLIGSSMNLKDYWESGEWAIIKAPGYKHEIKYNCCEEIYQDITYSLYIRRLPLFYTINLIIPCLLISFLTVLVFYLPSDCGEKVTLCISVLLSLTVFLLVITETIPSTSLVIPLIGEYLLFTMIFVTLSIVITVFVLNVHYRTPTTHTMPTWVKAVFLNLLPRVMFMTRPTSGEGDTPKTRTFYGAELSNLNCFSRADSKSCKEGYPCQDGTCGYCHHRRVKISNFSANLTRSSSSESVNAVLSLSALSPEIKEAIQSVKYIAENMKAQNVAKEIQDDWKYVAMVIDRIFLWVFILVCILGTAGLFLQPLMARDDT

rat α3β4 nAChR = rat α3β4 nAChR (Rattus norvegicus, UniProt P04757+P12392); details: cited from earlier work
Chain of rat α3β4 nAChR (P12392 21-495): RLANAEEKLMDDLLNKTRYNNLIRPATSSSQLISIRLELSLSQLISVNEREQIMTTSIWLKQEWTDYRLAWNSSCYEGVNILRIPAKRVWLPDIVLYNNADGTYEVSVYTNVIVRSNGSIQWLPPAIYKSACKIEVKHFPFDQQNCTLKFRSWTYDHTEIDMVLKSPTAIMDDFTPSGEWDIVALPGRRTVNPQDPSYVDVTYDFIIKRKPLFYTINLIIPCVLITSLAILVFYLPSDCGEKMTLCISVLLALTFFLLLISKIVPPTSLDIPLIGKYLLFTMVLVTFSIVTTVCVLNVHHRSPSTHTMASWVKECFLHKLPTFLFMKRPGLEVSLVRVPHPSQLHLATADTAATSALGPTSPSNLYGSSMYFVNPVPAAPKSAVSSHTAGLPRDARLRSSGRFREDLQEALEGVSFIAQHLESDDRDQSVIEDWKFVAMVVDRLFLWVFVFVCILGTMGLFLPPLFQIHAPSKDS
Chain of rat α3β4 nAChR (P04757 26-499): as the sequence (P04757 26-499) above

rat α4β2 nAChR = rat α4β2 nAChR (Rattus norvegicus, UniProt P09483+P12390); details: read-out: Ki α4β2; cited from earlier work
Chain of rat α4β2 nAChR (P12390 25-500): as the sequence (P12390 25-500) above
Chain of rat α4β2 nAChR (P09483 31-630): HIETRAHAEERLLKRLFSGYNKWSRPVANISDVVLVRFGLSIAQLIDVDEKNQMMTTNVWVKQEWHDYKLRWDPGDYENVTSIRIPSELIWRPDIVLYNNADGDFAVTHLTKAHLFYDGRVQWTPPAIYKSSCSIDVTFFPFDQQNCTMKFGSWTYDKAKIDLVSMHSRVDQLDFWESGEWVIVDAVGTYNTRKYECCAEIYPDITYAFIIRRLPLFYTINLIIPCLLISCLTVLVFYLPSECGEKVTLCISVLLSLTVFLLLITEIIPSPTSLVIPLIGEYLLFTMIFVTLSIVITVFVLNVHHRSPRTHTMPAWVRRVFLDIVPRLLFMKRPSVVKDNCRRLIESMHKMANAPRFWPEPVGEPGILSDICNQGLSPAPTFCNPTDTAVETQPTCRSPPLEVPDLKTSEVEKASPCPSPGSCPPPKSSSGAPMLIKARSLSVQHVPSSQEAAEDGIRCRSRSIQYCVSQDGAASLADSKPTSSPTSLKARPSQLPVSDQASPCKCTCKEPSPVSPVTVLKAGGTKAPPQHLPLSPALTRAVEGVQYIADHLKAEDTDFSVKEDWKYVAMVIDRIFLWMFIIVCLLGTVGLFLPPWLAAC

[1] = target: α4β2*-nAChR, prepared from rat forebrain (Rattus norvegicus, UniProt P09483+P12390); details: read-out: Ki α4β2*; cited from earlier work
Chain of α4β2*-nAChR, prepared from rat forebrain (P09483 31-630): as above
Chain of α4β2*-nAChR, prepared from rat forebrain (P12390 25-500): as the sequence (P12390 25-500) above

rat α4β4 nAChR = rat α4β4 nAChR (Rattus norvegicus, UniProt P09483+P12392); details: read-out: Ki α4β4; cited from earlier work
Chain of rat α4β4 nAChR (P12392 21-495): as the sequence (P12392 21-495) above
Chain of rat α4β4 nAChR (P09483 31-630): as the sequence (P09483 31-630) above

human α4β2-nAChRs = human α4β2-nAChRs (Homo sapiens, UniProt P17787+P43681); type: cell-based; details: mixture of HS and LS α4β2-nAChRs; 10 min preincubation
Chain of human α4β2-nAChRs (P43681 29-627 limits assumed): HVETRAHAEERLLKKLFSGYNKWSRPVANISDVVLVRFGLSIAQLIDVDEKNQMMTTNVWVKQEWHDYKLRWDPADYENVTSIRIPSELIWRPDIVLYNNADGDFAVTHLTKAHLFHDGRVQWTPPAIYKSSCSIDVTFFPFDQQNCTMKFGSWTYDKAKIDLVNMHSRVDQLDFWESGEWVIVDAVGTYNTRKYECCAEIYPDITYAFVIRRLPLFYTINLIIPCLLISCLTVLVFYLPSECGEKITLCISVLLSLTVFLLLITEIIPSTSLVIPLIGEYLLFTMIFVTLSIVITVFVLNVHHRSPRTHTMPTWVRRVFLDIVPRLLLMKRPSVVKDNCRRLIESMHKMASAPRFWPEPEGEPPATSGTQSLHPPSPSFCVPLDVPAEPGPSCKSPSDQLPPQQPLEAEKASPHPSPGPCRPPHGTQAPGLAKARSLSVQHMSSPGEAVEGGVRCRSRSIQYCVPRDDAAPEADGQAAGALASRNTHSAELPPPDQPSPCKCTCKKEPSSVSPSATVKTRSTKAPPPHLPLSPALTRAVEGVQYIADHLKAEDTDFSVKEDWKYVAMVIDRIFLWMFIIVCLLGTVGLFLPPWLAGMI
Chain of human α4β2-nAChRs (P17787 26-502): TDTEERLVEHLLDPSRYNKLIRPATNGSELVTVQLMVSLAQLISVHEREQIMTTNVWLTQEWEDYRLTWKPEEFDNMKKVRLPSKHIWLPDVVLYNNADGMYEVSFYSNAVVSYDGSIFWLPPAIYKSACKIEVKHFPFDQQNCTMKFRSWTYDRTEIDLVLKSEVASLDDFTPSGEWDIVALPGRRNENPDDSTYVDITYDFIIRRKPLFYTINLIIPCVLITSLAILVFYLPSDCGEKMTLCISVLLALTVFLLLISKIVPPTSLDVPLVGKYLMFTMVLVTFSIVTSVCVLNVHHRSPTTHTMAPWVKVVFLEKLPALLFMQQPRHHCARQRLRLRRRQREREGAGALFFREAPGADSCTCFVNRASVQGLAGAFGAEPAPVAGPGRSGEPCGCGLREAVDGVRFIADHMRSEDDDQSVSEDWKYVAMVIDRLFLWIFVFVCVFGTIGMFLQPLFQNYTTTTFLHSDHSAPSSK

[2] = bidirectional Caco-2 cell permeability assay; type: in vitro ADME; details: human, Caco-2, pH 7.4
Caco-2 cells = experiment: bidirectional Caco-2 cell permeability assay; type: in vitro ADME; details: Caco-2 bidirectional
[3] = chemical stability on storage; type: physicochemical; details: stored at room temperature for several months
[4] = system: strains TA98, TA100, TA1535, and TA1537; experiment: bacteria reversion mutation assay; details: strain TA1537 in the presence of S9 fraction, 50 and 100 μM

Chain of rat α2β2 nAChR (P12389 28-511): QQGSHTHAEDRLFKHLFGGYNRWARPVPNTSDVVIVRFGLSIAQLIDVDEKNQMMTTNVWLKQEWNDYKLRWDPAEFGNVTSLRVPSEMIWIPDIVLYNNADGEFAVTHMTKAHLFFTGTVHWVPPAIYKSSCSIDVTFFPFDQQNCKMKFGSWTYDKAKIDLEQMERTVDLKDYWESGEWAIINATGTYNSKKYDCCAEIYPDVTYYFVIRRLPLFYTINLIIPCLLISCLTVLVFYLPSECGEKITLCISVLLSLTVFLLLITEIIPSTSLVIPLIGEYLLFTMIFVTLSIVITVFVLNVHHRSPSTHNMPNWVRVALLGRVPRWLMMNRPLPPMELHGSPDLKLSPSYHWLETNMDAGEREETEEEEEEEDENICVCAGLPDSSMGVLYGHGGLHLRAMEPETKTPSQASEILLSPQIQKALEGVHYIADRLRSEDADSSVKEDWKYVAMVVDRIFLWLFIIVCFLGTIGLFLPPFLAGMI
Chain of rat α2β2 nAChR (P12390 25-500): as the sequence (P12390 25-500) above
Chain of rat α2β4 nAChR (P12389 28-511): as the sequence (P12389 28-511) above
Chain of rat α2β4 nAChR (P12392 21-495): as the sequence (P12392 21-495) above

## CN[C@H]1CC[C@@H](c2ccc(Cl)c(Cl)c2)c2ccccc21 [sertraline, reference compound]
BALB/cJ male mice; 20 mg/kg
  effect on immobility (positive control): expected decrease in immobility

## OCCCCC#Cc1cncc(OC[C@@H]2CCN2)c1 [saz-A, sazetidine-A]
Rat α2β2 nAChR
  Ki: 0.087 nM
Rat α2β4 nAChR
  Ki: 210 nM
Rat α3β2 nAChR
  Ki: 0.38 nM
Rat α3β4 nAChR; read-out: Ki α3β4
  Ki: 1900 nM
Rat α4β2 nAChR
  Ki: 0.062 nM
[1]
  Ki: 0.17 nM
Rat α4β4 nAChR
  Ki: 52 nM

## COCC[C@H]1C[C@@H]1c1cncc(OC[C@@H]2CCCN2)c1.O=C(O)C(F)(F)F [Compound 24, 3-[(2(S)-Pyrrolidinyl)methoxy]-5-[(1S,2R)-2-(2-methoxyethyl)cyclopropyl]pyridine Trifluoroacetate]
BALB/cJ male mice; in vivo
  effect in the forced swim test: no significant effects

## COCC[C@H]1C[C@@H]1c1cncc(OC[C@@H]2CCN2)c1 [Compound 4]
Human α4β2-nAChRs
  Inactivation α4β2 Efficacy: 71 ± 5.5%
Rat α3β4 nAChR
  Ki α3β4: NA (not active, defined as < 50% binding in the primary assay at 10 μM)

## COCC[C@H]1C[C@@H]1c1cncc(OC[C@H]2CCNC2)c1.O=C(O)C(F)(F)F [Compound 30, 3-[(3(S)-Pyrrolidinyl)methoxy]-5-[(1S,2R)-2-(2-methoxyethyl)cyclopropyl]pyridine Trifluoroacetate]
BALB/cJ male mice; intraperitoneal, 5 mg/kg
  abnormal behavioral effects: sedation and tremor

## COCC[C@H]1C[C@@H]1c1cncc(OC[C@@H]2CCCN2C)c1.O=C(O)C(F)(F)F [Compound 26, 3-[(1-Methyl-2(S)-pyrrolidinyl)methoxy]-5-[(1S,2R)-2-(2-methoxyethyl)cyclopropyl]pyridine Trifluoroacetate]
[2]
  efflux ratio: 0.2
Caco-2 cells
  permeability class: high permeability
[3]
  chemical stability: little or no sign of decomposition
BALB/cJ male mice; in vivo, ip
  minimal dose with significant reduction in immobility: 1 mg/kg
BALB/cJ male mice; in vivo, po
  minimal dose with significant reduction in immobility: 1 mg/kg
[4]
  Ames test mutagenic potential: positive significance
